By EC50 is commonly meant the concentration needed to bring the measured effect to its halfway point.

The values below come from patent US10358447B2, “Substituted 2-N-hydroxy-1,3-dioxo-1,2,3,4-tetrahydronaphthyridines, and methods of making and using same” (ARBUTUS BIOPHARMA CORPORATION, priority 2017, dated 2019).

Molecules are shown by their SMILES. Where two headings read alike, the source gives them in different places. Some results are limits rather than exact numbers.

Holding throughout (type): cell-based
Test [1] concerns HA-tagged HBeAg (HBV) in DESHAe82 cells. The experiment in a line: AlphaLisa eAg assay: HA-HBeAg level in DESHAe82 cell culture (anti-HBV / anti-cccDNA activity). Particulars: Hepatitis B virus, 216 h, read-out: AlphaLisa_eAg EC50 (μM). The method, then: Evaluation of anti-HBV activity of the compounds in in vitro cell culture studies was conducted using a modification of the assay system described in Cai et al., 2012, Antimicrobial Agents Chemotherapy 56(8):4277-88 and PCT/EP/2015/06838. In the DESHAe82 cell culture system, the HA epitope-tagged secreted HBV “e antigen” (HBeAg) and HBV precore RNA are produced only from the cccDNA circular template that is formed after HBV replication in absence of Tetracycline (Tet). The DESHAe82 cell line produces high levels of cccDNA synthesis and HA-HBeAg, and high specific readout signals with low noise. Two assay systems, a chemiluminescence ELISA (CLIA) and a proximity […] assay (AlphaLISA) were developed and used for high-sensitivity detection of HA-tagged HBeAg.
To test the compound, DESHAe82 were plated in 96 well tissue-culture treated microtiter plates in DMEM/F12 medium supplemented with 10% fetal bovine serum+1% penicillin-streptomycin with Tet, and incubated in a humidified incubator at 37° C. and 5% CO2 overnight. Next day, the cells were switched to fresh medium without Tet and treated with a test compound, over a range of concentrations (compound was solubilized in 100% DMSO before dilution in cell culture media, and the final DMSO concentration in the assay was 0.5%), and incubated for a duration of 9 days in a humidified incubator at 37° C. and 5% CO2. Untreated negative control samples (0.5% DMSO only) were included on each plate in multiple wells. On day 9, media was harvested and removed to a fresh plate, and level of HA-HBeAg was determined by CLIA or AlphaLISA. Anti-cccDNA activity of each test compound concentration was calculated as a percentage of HA-HBeAg signal detected in negative control samples versus compound-treated samples, and EC50 value for each compound was defined as the concentration that reduced the HA-HBeAg signal by 50%.
A general note: Alpha assays give light when donor and acceptor beads are brought close together.

Test [2] deals with HBV rcDNA in HepDE19 cells. As to the kind of experiment: HepDE19 assay with bDNA quantitation of HBV rcDNA. Particulars: Hepatitis B virus. From the text: (§1) The invention further provides a method of screening compounds for activity against HBV, as exemplified herein. In certain embodiments, the method comprises a HepDE19 assay with bDNA quantitation of HBV rcDNA. HepDE19 cell culture system is a HepG2 (human hepatocarcinoma) derived cell line that supports HBV DNA replication and cccDNA formation in a tetracycline (Tet)-regulated manner and produces HBV rcDNA and a detectable reporter molecule dependent on the production and maintenance of cccDNA (Tavis & Lomonosova, 2015, Antiviral Res. 118:132-138). In certain non-limiting embodiments, HepDE19 (50,000 cells/well) are plated in 96 well collagen-coated tissue-culture treated microtiter plates in DMEM/F12 medium supplemented with 10% fetal bovine serum, 1% penicillin-streptomycin and 1 μg/ml tetracycline and incubated in a humidified incubator at 37° C. and 5% CO2 overnight. Next day, the cells are switched to fresh medium without tetracycline and incubated for 4 hrs at 37° C. and 5% CO2. The cells are treated with fresh Tet-free medium with compounds at concentrations starting at 25 μM and a serial, ½ log, 8-point, titration series in duplicate. The final DMSO concentration in the assay is 0.5%. The plates are incubated for 7 days in a humidified incubator at 37° C. and 5% CO2. Following a 7 day-incubation, the level of rcDNA present in the inhibitor-treated wells is measured using a Quantigene 2.0 bDNA assay kit (Affymetrix, Santa Clara, Calif.) with HBV specific custom probe set and manufacturer's instructions.
In order to differentiate HBV RNaseH inhibitors from other classes of HBV inhibitors (such as, for example, nucleos(t)ide analogs or capsid inhibitors), the assay method is configured by incorporating the quantitation of both the minus-strand and the plus-strand of HBV rcDNA levels using specifically designed HBV probe sets. This is based on the observation that inhibition of RNaseH enzyme activity results in a block of the synthesis of the plus strand synthesis by the viral polymerase that follows the synthesis of the minus-strand of rcDNA (Guo, et al., 2007, J. Virol. 81:12472-12484). […] In contrast, treatment with HBV inhibitors such as a nucleos(t)ide analogs or capsid inhibitors reduces production of both strands of HBV rcDNA in cells. Concurrently, the effect of compounds on cell viability can be assessed using replicate plates, plated at a density of 5,000 cells/well and incubated for 4 days, to determine the ATP content as a measure of cell viability using the cell-titer glo reagent (CTG; Promega Corporation, Madison, Wis.) as per manufacturer's instructions. The plates are read using a Victor luminescence plate reader (PerkinElmer Model 1420 Multilabel counter), and the relative luminescence units (RLU) data generated from each well was calculated as % inhibition of the untreated control wells and analyzed using XL-Fit module in Microsoft Excel to determine EC50 and EC90 (bDNA) and CC50 (CTG) values using a 4-parameter curve fitting algorithm.
HepDE19 cell culture system is a HepG2 (human hepatocarcinoma) derived cell line that supports HBV DNA replication and cccDNA formation in a tetracycline (Tet)-regulated manner and produces HBV rcDNA and a detectable reporter molecule dependent on the production and maintenance of cccDNA (Guo, et al., 2007, J. Virol. 81:12472-12484). HepDE19 (50,000 cells/well) were plated in 96 well collagen-coated tissue-culture treated microtiter plates in DMEM/F12 medium supplemented with 10% fetal bovine serum, 1% penicillin-streptomycin and 1μg/ml tetracycline and incubated in a humidified incubator at 37° C. and 5% CO2 overnight. Next day, the cells were switched to fresh medium without tetracycline and incubated for 4 hrs at 37° C. and 5%CO2. The cells were treated with fresh Tet-free medium with compounds at concentrations starting at 25 μM and a serial, ½ log, 8-point, titration series in duplicate. The final DMSO concentration in the assay was 0.5%. […]

Test [3] deals with plus-strand of HBV rcDNA in HepDE19 cells. As to the kind of experiment: HepDE19 assay with bDNA quantitation of the plus-strand of HBV rcDNA. Particulars: Hepatitis B virus.
From the text: as §1
In order to differentiate HBV RNaseH inhibitors from other classes of HBV inhibitors (such as, for example, nucleos(t)ide analogs or capsid inhibitors), the assay method is configured by incorporating the quantitation of both the minus-strand and the plus-strand of HBV rcDNA levels using specifically designed HBV probe sets. […] Concurrently, the effect of compounds on cell viability can be assessed using replicate plates, plated at a density of 5,000 cells/well and incubated for 4 days, to determine the ATP content as a measure of cell viability using the cell-titer glo reagent (CTG; Promega Corporation, Madison, Wis.) as per manufacturer's instructions. The plates are read using a Victor luminescence plate reader (PerkinElmer Model 1420 Multilabel counter), and the relative luminescence units (RLU) data generated from each well was calculated as % inhibition of the untreated control wells and analyzed using XL-Fit module in Microsoft Excel to determine EC50 and EC90 (bDNA) and CC50 (CTG) values using a 4-parameter curve fitting algorithm. […]

Setting [4] is: 168 h, HepDE19 cells, 7 day incubation, top concentration 25 μM, read-out: bDNA_RC DNA EC50.
Setting [5] is: 168 h, HepDE19 cells, 7 day incubation, plus-strand probe set, top concentration 25 μM, read-out: bDNA_RC DNA PS EC50.
The mark [6] stands for this setting: HepDE19, 168 h, read-out: bDNA_RC DNA EC50 (μM).

For `CCOC(=O)C1C(=O)N(O)C(=O)c2ccc(OC)nc21` (stereo not shown) [Compound 1, Ethyl 6-hydroxy-2-methoxy-5,7-dioxo-5,6,7,8-tetrahydro-1,6-naphthyridine-8-carboxylate], the half-maximal effective concentration (EC50) in test [1] is 2.4 µM; in test [2] (setting [4]), over 25 µM.
As to `CCN(CC)C(=O)C1C(=O)N(O)C(=O)c2ccc(OC)nc21` (stereo not shown) [Compound 2, N,N-diethyl-6-hydroxy-2-methoxy-5,7-dioxo-5,6,7,8-tetrahydro-1,6-naphthyridine-8-carboxamide], the 50% effective concentration (EC50) was 11.2 µM in test [3] (setting [5]), 1.5 µM in test [1] and over 25 µM in test [2] (setting [4]).
Consider `COc1ccc2c(n1)C(C(=O)Nc1ccc(Cl)cc1)C(=O)N(O)C2=O` (stereo not shown) [Compound 3, N-(4-chlorophenyl)-6-hydroxy-2-methoxy-5,7-dioxo-5,6,7,8-tetrahydro-1,6-naphthyridine-8-carboxamide], for which the EC50 is 16 µM in test [3] (HepDE19, 168 h, read-out: bDNA_RC DNA PS EC50 (μM)); 9.6 µM in test [1]; 9.4 µM in test [2] (setting [6]).
`COc1ccc2c(n1)C(C(=O)Nc1ccc(F)cc1)C(=O)N(O)C2=O` (stereo not shown) [Compound 4, N-(4-fluorophenyl)-6-hydroxy-2-methoxy-5,7-dioxo-5,6,7,8-tetrahydro-1,6-naphthyridine-8-carboxamide]: the concentration giving a half-maximal response (EC50) in test [1] was 9.6 µM; in test [2] (setting [6]), over 25 µM.
For the compound `COc1ccc2c(n1)C(C(=O)NCc1ccc(Cl)cc1)C(=O)N(O)C2=O` (stereo not shown) [Compound 5, N-(4-chlorobenzyl)-6-hydroxy-2-methoxy-5,7-dioxo-5,6,7,8-tetrahydro-1,6-naphthyridine-8-carboxamide], the concentration giving a half-maximal response (EC50) is over 25 µM in test [3] (setting [5]), over 50 µM in test [1] and over 25 µM in test [2] (setting [4]).
Consider `O=C(NCc1ccc(F)cc1)C1C(=O)N(O)C(=O)c2ccc(O)nc21` (stereo not shown) [Compound 6, N-(4-fluorobenzyl)-2,6-dihydroxy-5,7-dioxo-5,6,7,8-tetrahydro-1,6-naphthyridine-8-carboxamide], for which the results for the EC50 in test [3] (setting [5]), in test [1] and in test [2] (setting [4]) were 15 µM, 3.6 µM and over 25 µM, respectively.
